Patent publication US20250205182A1, “COMPOSITIONS AND METHODS FOR IMPROVING GUT PERMEABILITY” (BRIGHTSEED, INC., priority 2022, published 2025)
“Also recorded” adds a separate entry of the source.

Test system: human transverse colon epithelial cells
Experiment: Transepithelial electrical resistance (TEER) of transverse colon monolayers treated with TNFα
Assay type: cell-based
Conditions: for change in TEER as a result of TNF administration: with TNFα, 10, 20, 40 μM, after 48 hours, relative to t=0; for TEER: with TNF
Description: Cell Information: Donor 5 Transverse Colon, HISC-0033, Passage 10. Plated onto 4×96-well RepliGut® transwell plates coated with thin hydrogel coating. 2× RepliGut® transwell plates had 1.0 μm pore size (Corning 3380) and 2× RepliGut® transwell plates had 0.4 μm pore size (Corning 7369).
Compound Information: TNFα was supplied by Allis Biosystems and reconstituted according to the manufacturer's instructions. All other compounds were provided by Brightseed in DMSO (Table 1). Stocks were created for each treatment (Table 2) so that the final concentration of an individual compound in the culture media was 0.1% media volume for all compounds.
Proliferative human transverse colon epithelial cells were plated in Altis Expansion media using Altis-established protocols onto 4×96-well RepliGut® transwell plates coated with a thin layer of hydrogel. Cultures were monitored every day using a bright field microscope. Transverse colon epithelial monolayers became confluent on Day 4, at which point media was changed to Altis Differentiation media. The cells were cultured for an additional 2 days. Brightseed compounds and TNFα, listed in Table 2, were diluted in Altis Differentiation media, mixed well, and added to apical and basal compartment of transwell cultures at t=0 hours. All conditions were performed in triplicate. Cells were treated with compounds for a total of 48 hours.
Transepithelial electrical resistance was measured in all transwell cultures at t=0 hours prior to the addition of compounds to determine baseline TEER using an Epithelial Volt/Ohm Meter (World Precision Instruments, EVOM2) and STX100C96 Electrode. TEER was also measured at t=24 hours, t=45 hours, and t=48 hours. The surface area of a 96-well transwell is 0.143 cm^2 per well. Corrected TEER was calculated using the formula below.
(Raw measured TEER of sample transwell−Raw measured TEER of blank transwell)×Surface Area
Statistical analysis was performed using GraphPad Prism software version 9.4.1 (GraphPad Inc., La Jolla, CA, USA). Two-way ANOVA of means from n=3 samples per group was performed to measure simple effects within treatment groups. Tukey's range test was performed to correct for multiple comparisons. Differences between the groups were considered significant at p<0.05.

[1] = FIGS. 1-12 (TEER and permeability)

Row | SMILES | optimal concentration of the study [1] | rank of effect among the test articles [1] | change in TEER as a result of TNF administration | change in TEER as a result of TNF administration (listed as NCT) | TEER (10 μM) | TEER (20 and 40 μM) | change in TEER as a result of TNF administration (listed as NFT)
1 | O=C(/C=C/c1ccc(O)c(O)c1)NCCc1ccc(O)cc1 [Compound 1, N-trans-caffeoyltyramine] | 40 µM | greatest effect | dose-dependent and statistically significant reversal of this decrease | improved the change in TEER as a result of TNF administration in a dose-dependent manner; also recorded: protected against (a) decreased TEER | – | – | –
2 | COc1cc(/C=C/C(=O)NCCc2ccc(O)cc2)ccc1O [Compound 2, N-trans-feruloyltyramine] | – | – | dose-dependent and statistically significant reversal of this decrease | – | improved TEER | did not show the same dose-dependent effect | protected against (a) decreased TEER
